Among the data in PubChem BioAssay (NCI) are GI50 and TGI values, retold here.

Molecules are shown by their SMILES. “And” between values parts separate entries of the source, which are not always exact repeats. Equal entries are not always repeated.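 Following 48 hours of exposure in 96-well plates, responses at five concentrations were used to interpolate endpoints linearly. GI50 is the concentration that inhibits growth by half. At the TGI there is no net growth.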 A value given as a limit tells only on which side of the number the result lay.

Among the test systems are SNB-75 CNS; HT29 colon; KM12 colon; SR leukemia; SF-268 CNS; CCRF-CEM leukemia; OVCAR-8 ovarian; NCI-H226 lung; NCI/ADR-RES ovarian.
Common to all, as to experiment: growth of human tumour cells (NCI), 48 h

Take `C=Cc1cncc(C#N)c1CCc1c(C#N)cncc1C=C`: the GI50 in the test on SNB-75 CNS, in the test on HT29 colon, with KM12 colon, with CCRF-CEM leukemia, in the test with OVCAR-8 ovarian and with NCI-H226 lung was more than 100 µM in each case. In addition, the TGI with SNB-75 CNS was more than 100 µM; in the test with HT29 colon, more than 100 µM; in the test with KM12 colon it was more than 100 µM; in the test with SR leukemia, more than 10 µM; with SF-268 CNS, more than 10 µM; with CCRF-CEM leukemia it was more than 100 µM. The TGI in the test with OVCAR-8 ovarian and with NCI-H226 lung was more than 100 µM each time.

For `COc1ccc(CCN2CC=Cn3c2nc2ccccc2c3=O)cc1`, the GI50 with HT29 colon was 0.0319 µM; in the test on KM12 colon, 0.0167 µM; in the test with NCI/ADR-RES ovarian it was 0.0179 µM; with SR leukemia, 0.0354 µM; in the test with SF-268 CNS it was 0.104 µM; in the test on CCRF-CEM leukemia, 0.03 µM. Moreover, the GI50 in the test on OVCAR-8 ovarian was 0.054 µM; with NCI-H226 lung it was 0.101 µM. Further, the TGI with HT29 colon is 27.4 µM; with KM12 colon, more than 100 µM; in the test with NCI/ADR-RES ovarian, 0.77 µM; in the test with SR leukemia it was more than 100 µM; with SF-268 CNS, more than 60.8 µM; in the test with CCRF-CEM leukemia, more than 100 µM. Moreover, the TGI is more than 41 µM in the test on OVCAR-8 ovarian and more than 85.8 µM in the test with NCI-H226 lung.

In the case of `O=C1C=CC(=O)C2=C1[C@@H](O)C1CC=CC3C(=O)O[C@@H]2C31` (stereo partly drawn), the TGI in the test with SNB-75 CNS was 50.7 µM; in the test with HT29 colon, more than 65.4 µM; in the test on KM12 colon, 41.2 µM; in the test with SR leukemia, more than 100 µM; in the test on SF-268 CNS it was more than 70.6 µM; in the test on CCRF-CEM leukemia, 42.9 µM. The values for the TGI with OVCAR-8 ovarian and in the test on NCI-H226 lung were more than 71.3 µM and more than 75.1 µM, respectively.

On to `O=C(O)CC[C@H](NC(=O)c1ccc(-n2nc3ccc(O)cc3nc2=O)cc1)C(=O)O`, for which the TGI with HT29 colon, in the test with KM12 colon, with SR leukemia, with SF-268 CNS, with CCRF-CEM leukemia and in the test on OVCAR-8 ovarian was more than 100 µM in each case.

As for `C[C@H](OCc1ccccc1)C(=O)N1CCS(=O)(=O)N2CCC[C@@H]2C1=O`, the TGI with SNB-75 CNS, in the test on HT29 colon, in the test with KM12 colon, with SR leukemia, with SF-268 CNS and with CCRF-CEM leukemia was more than 100 µM throughout. In addition, the TGI in the test with OVCAR-8 ovarian and in the test with NCI-H226 lung was more than 100 µM in each case.

Regarding `CC[C@@]1(O)C(=O)OCc2c1cc1n(c2=O)Cc2cc3cc4c(cc3nc2-1)OCO4`, the GI50 in the test on KM12 colon was 0.0353 µM and < 0.0188 µM. Moreover, the TGI was 0.369 µM with KM12 colon; more than 100 µM in the test with NCI/ADR-RES ovarian; more than 100 µM with SR leukemia; 0.0152 µM and < 0.0414 µM with CCRF-CEM leukemia; 0.369 µM in the test with OVCAR-8 ovarian; 0.00616 µM and < 0.0387 µM in the test on NCI-H226 lung.

Consider `O=C1CCCCC1S(=O)(=O)c1ccccc1` (stereo not drawn), for which the TGI with SNB-75 CNS, with HT29 colon, in the test on KM12 colon, in the test with SR leukemia, with SF-268 CNS and in the test with CCRF-CEM leukemia was more than 100 µM each time. The TGI in the test with OVCAR-8 ovarian and in the test on NCI-H226 lung was more than 100 µM throughout.

Consider `O=S(=O)(/C=C/c1ccc(F)cc1)Cc1ccc(CS(=O)(=O)/C=C/c2ccc(F)cc2)cc1`, for which the TGI in the test on SNB-75 CNS, in the test on HT29 colon, in the test on KM12 colon, in the test with SR leukemia, with SF-268 CNS and in the test on CCRF-CEM leukemia was more than 100 µM throughout. Besides, the TGI with OVCAR-8 ovarian and with NCI-H226 lung was more than 100 µM in each case.

As for `COc1ccc(/C=C/c2cc(OC)c(OC)c(OC)c2)cc1`, the TGI in the test with SNB-75 CNS is more than 21.7 µM; in the test on HT29 colon it was more than 38 µM; with KM12 colon, more than 100 µM; in the test with SF-268 CNS it was more than 85.3 µM; in the test on CCRF-CEM leukemia, more than 100 µM; in the test with OVCAR-8 ovarian, more than 100 µM. The compound further displayed a TGI in the test on NCI-H226 lung of more than 87.7 µM.

As for `CC(CN(C)C)/C(=N\Nc1ccccc1)c1ccccc1` (stereo not drawn), the TGI stood at 66.8 µM in the test on SNB-75 CNS; 17.9 µM in the test on HT29 colon; 14.4 µM in the test on KM12 colon; 23.1 µM with SR leukemia; 16.6 µM with SF-268 CNS; 29.3 µM in the test with CCRF-CEM leukemia. In the test on OVCAR-8 ovarian, this compound registered a TGI of more than 100 µM.

As for `CCOc1cc2c(C(=O)CC)c(O)ccc2o1`, the TGI was more than 100 µM in the test on SNB-75 CNS; more than 100 µM with HT29 colon; more than 100 µM in the test on KM12 colon; more than 100 µM in the test with SR leukemia; more than 100 µM in the test with SF-268 CNS; more than 85.1 µM in the test on CCRF-CEM leukemia. The TGI with OVCAR-8 ovarian and with NCI-H226 lung was more than 100 µM each time.

Consider `Cc1cn(C2CC3C(COCN3O)O2)c(=O)[nH]c1=O` (stereo not drawn), for which the TGI in the test on SNB-75 CNS, in the test on HT29 colon, in the test with KM12 colon, in the test on SR leukemia, in the test with SF-268 CNS and in the test with CCRF-CEM leukemia was more than 100 µM each time. Besides, the TGI in the test on OVCAR-8 ovarian and in the test on NCI-H226 lung was more than 100 µM in each case.

`C[C@@]12CCC(=O)c3coc(c31)C(=O)c1cc3c(cc12)C(=O)C=CC3=O`: the GI50 in the test with SNB-75 CNS, with HT29 colon, in the test with KM12 colon, in the test with SR leukemia, with SF-268 CNS and in the test with OVCAR-8 ovarian was more than 1 µM throughout. Moreover, the GI50 with NCI-H226 lung is more than 1 µM. The TGI was > 1 µM and 43.9 µM in the test with SNB-75 CNS; > 1 µM and 39.7 µM in the test on HT29 colon; more than 61.6 µM with KM12 colon; more than 71.2 µM in the test on SR leukemia; > 1 µM and 38 µM with SF-268 CNS; more than 23.2 µM with CCRF-CEM leukemia. The TGI in the test with OVCAR-8 ovarian was > 1 µM and 30.2 µM; in the test with NCI-H226 lung it was > 1 µM and 86 µM.

As to `O=C(c1ccc(Cl)cc1Cl)C1[C@H]2C(=O)N(c3ccc(Cc4ccc(N5C(=O)[C@@H]6ON(c7ccccc7)C(C(=O)c7ccc(Cl)cc7Cl)[C@@H]6C5=O)cc4)cc3)C(=O)[C@H]2ON1c1ccccc1` (stereo partly drawn), the TGI in the test on SNB-75 CNS, in the test with HT29 colon, with KM12 colon, in the test with SR leukemia, in the test with SF-268 CNS and in the test on CCRF-CEM leukemia was more than 50 µM in each case. Further, the TGI in the test with OVCAR-8 ovarian and in the test with NCI-H226 lung was more than 50 µM throughout.
